Measured values reported in patent US6004952A, “Micacocidin derivatives” (Shinogi & Co., Ltd., priority 1996, dated 1999).
In brackets after ≈: the same amount, converted by molar mass. Where two headings read alike, the source gives them in different places.

Assays:
M. gallisepticum [1] = test: In vivo evaluation test for M. gallisepticum in chickens (air-sac lesions); settings: 6 chickens tested
Eimeria tenella = test: Growth inhibition activities to avian coccidium in primary chicken kidney cells; format: cell-based; settings: Eimeria tenella; more than 80% of suppression rate regarded as effective; read-out: Effective dose (growth inhibition)
Description: The kidneys of SPF new born chicken was sterilely removed, which was treated with trypsin and the resultant primary kidney cells were cultured in 24-well plate. Monolayer culture after cultured for 3 days was treated simultaneously with compounds adjusted to predetermined concentration and sporozoit obtained by artificial excystation, which was cultured a 40° C. Premature and mature schizonts were observed under microscope, and the growth inhibition activities (suppression rate) for each treatment group were calculated at a proportion of the number of schizonts for the sporozoit-inoculated, compound-untreated control group (100%).

[2] = Cytotoxicity to primary chicken kidney culture cells; format: cell-based; settings: primary chicken kidney cells
Aspergillus fumigatus = test: Antifungal activity, micro-liquid dilution method, Aspergillus fumigatus; format: cell-based, Aspergillus fumigatus strain MA; settings: Aspergillus fumigatus, 24 h, 30° C., read-out: Antifungal activities: IC50
Description: (§1) Antifungal activities of the compounds to Candida albicans (strain Ca-15) and Asperilhm fumigatus (strain MA), representative pathogenic fungi, were determined by micro-liquid dilution method using 96-well microplates. A fungal suspension stored under freezing was adjusted to 1×1 O^5 CFU/ml by medium, of which 100 μl portions were charged into each well. The compound of the present invention was dissolved in dimethylsulfoxide (DMSO). Using the resultant solution, 2-fold dilution series were prepared together with the fungal suspension charged into the wells. YNB medium and RPMI medium were used. After cultured for 24 hours at 30° C., evaluation was performed by detecting the turbidity (wave length: 595 nm) using microplate reader.

Candida albicans = test: Antifungal activity, micro-liquid dilution method, Candida albicans; format: cell-based, Candida albicans strain Ca-15; settings: Candida albicans, 24 h, 30° C., read-out: Antifungal activities: IC50
Description: as §1

mice spleen cells [3] = test: Suppression of reaction of mice spleen cells to Concanavalin A, in vitro (MTT); format: cell-based, BDF1 mice
Description: (§2) To each well of 96 well microtiter plate were added 5×10^5 spleen cells of BDF1 mice suspended in 0.1 ml of RPMI 1640 medium supplemented with 10% bovine fetus serum (supplemented with 2 mM sodium hydrogen carbonate, 50 Units/ml of penicillin, 50 μg/ml of streptomycin, and 5×10^-5 M of 2-mercaptoethanol), and then, 5 μg/ml of Concanavalin A (Con A) or 10 μg/ml of lypopolysaccaride (LPS) and various concentrations of test substance, of which final volume was adjusted to 0.2 ml. Test substances were dissolved in dimethylsulfoxide (DMSO), diluted with RPMI 1640 stated above, and added to the wells so that final concentration of the substances becomes less than 10000 ng/ml. The 96-well microtiter plates were cultured at 37° C. for 3 days in an incubator which was maintained at the humidity of 100%, 5% of carbon dioxide and 95% of air. After cultivation is completed, […] of 6 mg/ml solution of MTT {3-(4,5-dimethylthiazol-2yl)-2,5 diphenyltetrazoliumbromide} (Sigma) is added to each well, which is cultured at 37° C. for […] under the same conditions. After cultivation is completed, formazan formed is dissolved by adding 50 μl of a solution of 20% dodecyl sodium sulfonate (SDS) in 0.02N hydrochloric acid and kept standing at 37° C. for 24 hours. The absorbance (OD) of the formazan which was produced in proportion to the number of alive cells, was determined by using immunoreader equipped with 570 nm filter (see The Journal of Immunological Methods, Vol.65, 55-63, 1983).
(§3) Cell growth inhibition rate and IC50 value were calculated according to the correlation between the concentration and the absorbance for each substance.

mice spleen cells [4] = test: Suppression of reaction of mice spleen cells to lypopolysaccaride (LPS), in vitro (MTT); format: cell-based, BDF1 mice
Description: as §2, §3

M. hyopneumoniae = test: MIC, liquid dilution method, Mycoplasma hyopneumoniae; settings: Mesomycoplasma hyopneumoniae
Mycoplasma = test: MIC to Mycoplasmas (summary in words); format: cell-based
M. pneumoniae = test: MIC, liquid dilution method, Mycoplasma pneumoniae; settings: Mycoplasmoides pneumoniae
M. gallisepticum [5] = test: MIC, liquid dilution method, Mycoplasma gallisepticum; settings: Mycoplasmoides gallisepticum

In the case of `CN(C)[C@@H]1C(O)=C(C(N)=O)C(=O)[C@@]2(O)C(O)=C3C(=O)c4c(O)ccc(Cl)c4[C@@](C)(O)[C@H]3C[C@@H]12` [CTC, chlortetracycline, reference compound], the “air-sac lesions (the number of chickens): (+) slight” value (“air-sac lesions … (+) slight” below) (M. gallisepticum [1]; 50 mg/kg × 1, orally) is reported as 0, the “air-sac lesions (the number of chickens): (++-+++) moderate to severe” value (“air-sac lesions … to severe” below) (M. gallisepticum [1]; 50 mg/kg × 1, orally) is reported as 3 and the “air-sac lesions (the number of chickens): (-) non” value (shortened to “air-sac lesions … (-) non”) (M. gallisepticum [1]; 50 mg/kg × 1, orally) is reported as 3. The “number of chickens having lesions” value (M. gallisepticum [1]; 50 mg/kg × 1, orally) was 3, the “air-sac lesions … (+) slight” value (M. gallisepticum [1]; 100 mg/kg × 1, orally) was 0 and the “air-sac lesions … to severe” value (M. gallisepticum [1]; 100 mg/kg × 1, orally) was 1. The “air-sac lesions … (-) non” value (M. gallisepticum [1]; 100 mg/kg × 1, orally) was 5, the “number of chickens having lesions” value (M. gallisepticum [1]; 100 mg/kg × 1, orally) was 1 and the “air-sac lesions … (+) slight” value (M. gallisepticum [1]; 200 mg × 1, orally) was 0. The “air-sac lesions … to severe” value (M. gallisepticum [1]; 200 mg × 1, orally) was 1, the “air-sac lesions … (-) non” value (M. gallisepticum [1]; 200 mg × 1, orally) was 5 and the “number of chickens having lesions” value (M. gallisepticum [1]; 200 mg × 1, orally) was 1.
In the case of `CCCCCc1cccc(O)c1C1=NC(C2SCC(C(O)C(C)(C)C3=NC(C)(C(=O)O)CS3)N2C)CS1` (stereo not shown) [Compound 2], the minimal effective concentration (Eimeria tenella) is reported as 2.5 µg/mL, the MCC [2] is reported as 10 µg/mL and the IC50 (Aspergillus fumigatus; RPMI medium) is reported as 0.2 µg/mL (≈ 0.353 µM). The IC50 (Aspergillus fumigatus; YNB medium) was 3.2 µg/mL (≈ 5.66 µM), the IC50 (Candida albicans; RPMI medium) was 1.6 µg/mL (≈ 2.83 µM) and the IC50 (Candida albicans; YNB medium) was 6.3 µg/mL (≈ 11.1 µM).
In the case of `CCCCCc1cccc(O)c1C1=NC(C2SCC(C(OC(C)=O)C(C)(C)C3=NC(C)(C(=O)O)CS3)N2C)CS1` (stereo not shown) [Compound 3], the minimal effective concentration (Eimeria tenella) is reported as 10 µg/mL and the MCC [2] is reported as greater than 10 µg/mL.
In the case of `CCCCCc1cccc(O)c1C1=NC(C2SCC(C(OCc3ccc(Cl)cc3)C(C)(C)C3=NC(C)(C(=O)O)CS3)N2C)CS1` (stereo not shown) [Compound 6], the “suppression of the reaction to Con A of spleen cells” value (mice spleen cells [3]) is reported as “suppressed”, the inhibition at 0.156 µg/mL (mice spleen cells [3]; Mus musculus, 72 h, Con A, 156 ng/ml, read-out: Suppression rate) is reported as 0% and the inhibition at 0.312 µg/mL (mice spleen cells [3]; Mus musculus, 72 h, Con A, 312 ng/ml, read-out: Suppression rate) is reported as 16.5%. For the same molecule, the inhibition at 0.625 µg/mL (mice spleen cells [3]; Mus musculus, 72 h, Con A, 625 ng/ml, read-out: Suppression rate) was 87.4%, the inhibition at 1.25 µg/mL (mice spleen cells [3]; Mus musculus, 72 h, Con A, 1250 ng/ml, read-out: Suppression rate) was 98.6% and the inhibition at 2.5 µg/mL (mice spleen cells [3]; Mus musculus, 72 h, Con A, 2500 ng/ml, read-out: Suppression rate) was 102%. The IC50 (mice spleen cells [3]; Mus musculus, Con A) was 0.399 µg/mL (≈ 0.578 µM), the “suppression of the reaction to LPS of spleen cells” value (mice spleen cells [4]) was “suppressed” and the inhibition at 0.156 µg/mL (mice spleen cells [4]; Mus musculus, 72 h, LPS, 156 ng/ml, read-out: Suppression rate) was 17.7%. It also gave an inhibition at 0.312 µg/mL (mice spleen cells [4]; Mus musculus, 72 h, LPS, 312 ng/ml, read-out: Suppression rate) of 24.4%, an inhibition at 0.625 µg/mL (mice spleen cells [4]; Mus musculus, 72 h, LPS, 625 ng/ml, read-out: Suppression rate) of 84.3% and an inhibition at 1.25 µg/mL (mice spleen cells [4]; Mus musculus, 72 h, LPS, 1250 ng/ml, read-out: Suppression rate) of 98%. It also gave an inhibition at 2.5 µg/mL (mice spleen cells [4]; Mus musculus, 72 h, LPS, 2500 ng/ml, read-out: Suppression rate) of 105% and an IC50 (mice spleen cells [4]; Mus musculus, LPS) of 0.368 µg/mL (≈ 0.533 µM).
With `CCCCCc1cccc(OC(C)=O)c1C1=NC(C2SCC(C(OC(C)=O)C(C)(C)C3=NC(C)(C(=O)OC)CS3)N2C)CS1` (stereo not shown) [Compound 10] the minimal effective concentration (Eimeria tenella) was greater than 10 µg/mL and the MCC [2] was greater than 10 µg/mL.
With `CCCCCc1cccc(OCc2ccc(Cl)cc2)c1C1=NC(C2SCC(C(O)C(C)(C)C3=NC(C)(C(=O)OC)CS3)N2C)CS1` (stereo not shown) [Compound 11] the minimal effective concentration (Eimeria tenella) was 10 µg/mL and the MCC [2] was greater than 10 µg/mL.
With `CCCCCc1cccc(O)c1C1=NC(C2SCC(C(O)C(C)(C)C3=NC(C)(C(=O)OC)CS3)N2C)CS1` (stereo not shown) [Compound 12] the MIC (M. hyopneumoniae) was no more than 0.025 µg/mL, the minimal effective concentration (Eimeria tenella) was 0.625 µg/mL and the MCC [2] was greater than 10 µg/mL. For the same molecule, the “MICs to Mycoplasmas” value (Mycoplasma) was “low MICs”, the MIC (M. pneumoniae) was no more than 0.00625 µg/mL and the MIC (M. gallisepticum [5]) was 0.2 µg/mL (≈ 0.345 µM).
`CCCCCc1cccc(O)c1C1=NC(C2SCC(C(OCc3ccc(Cl)cc3)C(C)(C)C3=NC(C)(C(=O)OC)CS3)N2C)CS1` (stereo not shown) [Compound 13] showed a minimal effective concentration (Eimeria tenella) greater than 10 µg/mL and an MCC [2] greater than 10 µg/mL.
